Numbers after ± are expanded uncertainties.
Details: Liquid

CCCCO [butan-1-ol]
viscosity [mPa·s]
Details | 293.15 K | 298.15 K | 313.15 K | 323.15 K | 333.15 K | 348.15 K | 353.15 K
100 kPa, Concentric cylinders viscometry | 2.959 ± 0.033 | – | 1.794 ± 0.02 | – | 1.154 ± 0.014 | – | 0.7837 ± 0.0099
100 kPa, Vibrating wire viscometry | 2.969 ± 0.047 | 2.601 ± 0.042 | 1.797 ± 0.029 | 1.429 ± 0.023 | 1.156 ± 0.019 | 0.8579 ± 0.015 | 0.7903 ± 0.014
1000 kPa, Vibrating wire viscometry | 3.001 ± 0.048 | 2.622 ± 0.042 | 1.813 ± 0.029 | 1.44 ± 0.024 | 1.172 ± 0.019 | 0.8647 ± 0.015 | 0.7943 ± 0.014
5000 kPa, Vibrating wire viscometry | 3.108 ± 0.049 | 2.715 ± 0.043 | 1.89 ± 0.03 | 1.491 ± 0.024 | 1.227 ± 0.02 | 0.8956 ± 0.015 | 0.8284 ± 0.014
10000 kPa, Vibrating wire viscometry | 3.244 ± 0.052 | 2.834 ± 0.045 | 1.967 ± 0.032 | 1.556 ± 0.025 | 1.29 ± 0.021 | 0.9349 ± 0.016 | 0.8637 ± 0.015
20000 kPa, Vibrating wire viscometry | 3.479 ± 0.055 | 3.079 ± 0.049 | 2.14 ± 0.034 | 1.69 ± 0.027 | 1.389 ± 0.023 | 1.016 ± 0.017 | 0.9473 ± 0.016
30000 kPa, Vibrating wire viscometry | 3.788 ± 0.06 | 3.333 ± 0.053 | 2.319 ± 0.037 | 1.829 ± 0.03 | 1.504 ± 0.025 | 1.101 ± 0.018 | 1.04 ± 0.017
40000 kPa, Vibrating wire viscometry | 4.078 ± 0.065 | 3.599 ± 0.057 | 2.48 ± 0.04 | 1.975 ± 0.032 | 1.624 ± 0.026 | 1.189 ± 0.02 | 1.102 ± 0.018
50000 kPa, Vibrating wire viscometry | 4.401 ± 0.07 | 3.874 ± 0.061 | 2.629 ± 0.042 | 2.125 ± 0.034 | 1.741 ± 0.028 | 1.28 ± 0.021 | 1.21 ± 0.02
60000 kPa, Vibrating wire viscometry | 4.74 ± 0.075 | 4.16 ± 0.066 | 2.852 ± 0.045 | 2.281 ± 0.037 | 1.867 ± 0.03 | 1.375 ± 0.023 | 1.295 ± 0.021
70000 kPa, Vibrating wire viscometry | 5.076 ± 0.08 | 4.455 ± 0.071 | 3.089 ± 0.049 | 2.443 ± 0.039 | 2.014 ± 0.032 | 1.473 ± 0.024 | 1.384 ± 0.023
80000 kPa, Vibrating wire viscometry | 5.438 ± 0.086 | 4.761 ± 0.075 | 3.247 ± 0.052 | 2.61 ± 0.042 | 2.137 ± 0.034 | 1.575 ± 0.026 | 1.473 ± 0.024
100000 kPa, Vibrating wire viscometry | 6.164 ± 0.097 | 5.404 ± 0.085 | 3.686 ± 0.058 | 2.962 ± 0.047 | 2.384 ± 0.038 | 1.788 ± 0.029 | 1.676 ± 0.027
120000 kPa, Vibrating wire viscometry | 6.979 ± 0.11 | 6.087 ± 0.096 | 4.192 ± 0.066 | 3.335 ± 0.053 | 2.633 ± 0.042 | 2.015 ± 0.032 | 1.857 ± 0.03
140000 kPa, Vibrating wire viscometry | 7.843 ± 0.12 | 6.811 ± 0.11 | 4.638 ± 0.073 | 3.682 ± 0.058 | 2.883 ± 0.046 | 2.255 ± 0.036 | 2.037 ± 0.033

Reference: the NIST ThermoML archive (doi:10.1016/j.jct.2016.07.008)
